Data: US20130310347A1, “MULTI-MODALITY MOLECULAR IMAGING HIGH-THROUGHPUT ASSAY FOR IDENTIFYING HEAT SHOCK PROTEIN 90 (HSP90) INHIBITORS” (The Board of Trustees of the Leland Stanford Junior …, priority 2012, published 2013)

Experiments:
[1] = system: Hsp90 client proteins (Raf-1, total and phosphorylated Akt); assay: Western blotting of Hsp90 client proteins in 293T cells; type: cell-based, human; conditions: 2 μM, 24 h, positive control
Description: FIG. 5A is a digital image of a western blot analysis illustrating the effect of lead compounds on the expression of Hsp90 client proteins. 293T cells stably expressing Hsp90(α/β)/p23 split reporters were treated with carrier control or compounds CP1, CP9, or CP18 (5 μM each) for 24 h. The known Hsp90 inhibitor PU-H71 (2 μM) was used as a positive control. The expression of Hsp90 client proteins (Raf-1, total and phosphorylated Akt) was determined by western blotting. α-Tubulin was used as a loading control.
Cells treated with PU-H71 (2 μM) served as a positive control.
Cells treated with 2 μM of PU-H71 served as a positive control. Western blotting of Hsp70, phosphorylated and total Akt and co-immunoprecipitation of Hsp90(α/β)/p23 interactions was performed as described Inglese et al., (2006) Proc. Nat. Acad. Sci. U.S.A. 103: 11473-11478, incorporated herein by reference in its entirety. The expression of Raf-1 was determined using rabbit polyclonal antibodies against Raf-1 (0.5 μg/ml, Abcam).

[2] = system: DOX-resistant V79/ADR lung cancer cells; assay: Sensitivity to DOX, Alamar Blue assay; type: cell-based; conditions: DOX 0.31-10 μM with inhibitor (CP9 8 μM), 24 h
Description: FIGS. 13A-13C illustrate the inhibition of cell proliferation of DOX-resistant V79/ADR lung cancer cells by CP9 and the Hsp90 inhibitor PU-H71 in cell culture. V79 lung cancer cells and […] cells that are resistant to DOX were treated with DOX (0.31-10 μM) in the presence or absence of CP9 (8 μM) for 24 h before determination of cell number by an Alamar Blue assay.
Both Hsp90 isoforms (α and β) are expressed in cancer cells, but Hsp90β is constitutively expressed, whereas the expression of Hsp90α is highly inducible during stress and drug treatment. Using the genetically encoded split Renilla reporter system according to the disclosure, it was possible to decipher the individual contributions of each isoform in determining the sensitivity of Hsp90 inhibitors. It was reported that the transcription of MDR1 is regulated by HSF-1, which in turn is regulated by Hsp90α (Trepel et al., (2010) Nat. Rev. Cancer 10: 537-549). To determine the biological significance of CP9 selectivity in inhibiting Hsp90α/p23 interactions, V79 lung cancer cells and V79/ADR cells that overexpress multidrug-resistant protein and are insensitive to growth inhibition by doxorubicin (DOX) were used. V79 and V79/ADR cells were treated with DOX alone or in the presence of CP9. On the other hand, the addition of CP9 sensitized V79/ADR cells to DOX, as shown by the decrease in cell proliferation relative to treatment with DOX alone, as shown in FIG. 13B. […] The results also are consistent with the observation that derivatives of Hsp90 inhibitor peptides sensitize cancer cells with overexpression of MDR to epirubicin (a class of anthracyclines that includes DOX) (Molnar et al., (2007) In Vivo 21: 429-433).

Question: Which results are given for `CC(C)NCCCn1c(Sc2cc3c(cc2I)OCO3)nc2c(N)ncnc21` [PU-H71, reference compound]?
Answer: levels of Hsp90 client proteins (pAkt/total Akt, Raf-1) [1]: decreased levels of Raf-1, pAkt and total Akt; sensitivity of drug-resistant V79/ADR cells to DOX [2]: restored the sensitivity
